Values of other authors, collected in patent publication US20060275215A1, “Novel imaging agents” (priority 2003, published 2006).

How the values were obtained:
caspase-3 = biological target: T1, caspase-3 (Homo sapiens, UniProt P42574)
T1 sequence (P42574 29-175 limits assumed): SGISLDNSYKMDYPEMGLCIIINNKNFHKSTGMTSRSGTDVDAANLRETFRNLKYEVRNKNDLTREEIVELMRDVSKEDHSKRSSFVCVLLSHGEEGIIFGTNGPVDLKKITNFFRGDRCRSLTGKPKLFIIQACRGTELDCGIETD
T1 sequence (P42574 176-277 limits assumed): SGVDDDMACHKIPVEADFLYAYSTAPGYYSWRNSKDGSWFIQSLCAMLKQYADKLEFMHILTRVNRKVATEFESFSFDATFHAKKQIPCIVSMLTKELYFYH

[1] = tested on: phosphatidylserine (PS) on the outer membrane of apoptotic cells; details: binding to phosphatidylserine on outer membrane of apoptotic cells; read-out: affinity
[2] = labelled with the radioisotope 131I

| Compound | IC50 for caspase-3 (caspase-3) | further results |
| --- | --- | --- |
| CCOc1ccc(OCC(=O)O)cc1CC(=O)NC(C(=O)NC(CC(=O)O)C(=O)CSCc1c(F)cccc1Cl)C(C)C (stereo not drawn) [6A′] | low nanomolar range |  |
| CCOc1ccc(OCC(=O)OC)cc1CC(=O)NC(C(=O)NC(CC(=O)O)C(=O)CSCc1c(F)cccc1Cl)C(C)C (stereo not drawn) [Compound 6A] | low nanomolar range |  |
| CCOc1ccc(OCC(=O)OC(C)C)cc1CC(=O)NC(C(=O)NC(CC(=O)O)C(=O)CSCc1c(F)cccc1Cl)C(C)C (stereo not drawn) [Compound 6B] | low nanomolar range |  |
| CCOc1ccc(S(C)(=O)=O)cc1CC(=O)NC(C(=O)NC(CC(=O)O)C(=O)CSCc1c(F)cccc1Cl)C(C)C (stereo not drawn) [Compound 6C] | low nanomolar range |  |
| Annexin-5: endogenous human protein (RMM 36 kDa) which binds to phosphatidylserine |  | Kd [1]: ~1 nM |
| benzyloxycarbonyl-Val-Ala-DL-Asp(O-methyl)-fluoromethylketone [Z-VAD-fmk] |  | absolute cellular uptake [2]: low |
